Tests used:
[1] = target: Plasmin from human plasma (Homo sapiens, UniProt P00747); assay: Plasmin inhibition assay with chromogenic substrate S-2251; type: biochemical; settings: ratio to Ki of monovalent AMB
[2] = tested on: plasmin; settings: cited from earlier work

Sequence of Plasmin from human plasma (P00747 581-810 limits assumed): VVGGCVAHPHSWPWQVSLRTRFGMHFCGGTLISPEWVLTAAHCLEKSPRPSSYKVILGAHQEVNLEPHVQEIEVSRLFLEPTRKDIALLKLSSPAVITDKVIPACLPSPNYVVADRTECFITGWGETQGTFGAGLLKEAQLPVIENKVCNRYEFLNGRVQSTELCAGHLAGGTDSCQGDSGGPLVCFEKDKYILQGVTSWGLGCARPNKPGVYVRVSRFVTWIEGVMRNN
Sequence of Plasmin from human plasma (P00747 98-580 partner limits assumed): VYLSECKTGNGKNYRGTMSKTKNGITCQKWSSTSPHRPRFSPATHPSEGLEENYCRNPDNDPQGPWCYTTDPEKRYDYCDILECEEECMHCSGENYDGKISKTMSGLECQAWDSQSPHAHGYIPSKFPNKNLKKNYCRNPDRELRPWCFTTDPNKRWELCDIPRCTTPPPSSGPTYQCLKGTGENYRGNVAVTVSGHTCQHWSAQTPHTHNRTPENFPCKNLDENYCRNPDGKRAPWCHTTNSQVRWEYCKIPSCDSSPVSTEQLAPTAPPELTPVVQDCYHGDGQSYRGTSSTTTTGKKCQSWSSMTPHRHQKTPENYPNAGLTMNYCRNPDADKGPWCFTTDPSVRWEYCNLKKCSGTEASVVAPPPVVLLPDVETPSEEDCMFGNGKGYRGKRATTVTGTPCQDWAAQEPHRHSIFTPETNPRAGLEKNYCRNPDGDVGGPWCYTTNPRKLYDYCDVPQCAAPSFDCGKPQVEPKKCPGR

| Structure (SMILES) | rp: relative potency = Ki AMB/Ki multi [1] | Fold stronger plasmin inhibitor than the strongest monovalent benzamidine [2] [fold] |
| --- | --- | --- |
| N=C(N)c1ccc(OCCCCCOc2ccc(C(=N)N)cc2)cc1 [Pentamidine, reference compound] | 664.3 | 13 |
| N=C(N)c1ccc(CNC(=O)CCOCCOCCOCCOCCNC(=O)CN(CC(=O)NCCOCCOCCOCCOCCC(=O)NCc2ccc(C(=N)N)cc2)CC(=O)NCCOCCOCCOCCOCCC(=O)NCc2ccc(C(=N)N)cc2)cc1 [Tri‐PEG4−AMB] | 27.6 | – |
| COCCOCCOCCOCCOCCOCCOCCOCCOCCOCCOCCOCCOCCC(=O)NCc1ccc(C(=N)N)cc1 [m‐dPEG12−AMB] | 3.9 | – |
| COCCOCCOCCOCCOCCOCCOCCOCCOCCOCCOCCOCCOCCOCCOCCOCCOCCOCCOCCOCCOCCOCCOCCOCCOCCC(=O)NCc1ccc(C(=N)N)cc1 [m‐dPEG24−AMB] | 2.7 | – |
